# Measurements from patent US20240365736A1, “COMPOSITIONS AND METHODS FOR TARGETED DEGRADATION OF PROTEINS IN A PLANT CELL” (Oerth Bio LLC, priority 2021, published 2024).
# Test system: Matricaria recutita, Diplotaxis tenuifolia, Agrostis spp., Poa annua, or Arabidopsis thaliana
# Assay: Plant phenotyping assay (herbicidal phenotypes, 96-well plates); further: key: '+++' is highly active; '++' is moderately active; '+' is weakly active; '−' is inactive
# Type: in vivo
# Conditions: visual score of herbicidal phenotypes after seven days; 238, 475, 950, and 1900 g ai/ha (50-400 uM)
# Procedure: Seeds of Matricaria recutita, Diplotaxis tenuifolia, Agrostis spp., Poa annua, or Arabidopsis thaliana were sown into 96-well plates containing 200 μl of growth media [0.5× Murashige and Skoog (MS) basal media (Sigma-Aldrich), 2.5 mM 2-(N-morpholino) ethanesulfonic acid (MES—Sigma-Aldrich), 0.7 g/L Phytagar (Invitrogen); pH 5.7]. Three to five seeds were distributed per well. Plates were placed under fifteen hours of light at 23° C., 65% humidity in a controlled environment growth chamber. After approximately three days, test compounds and controls were mixed with acetone and emulsified with an equal volume of 3% methyl ester of rapeseed oil (Mero), and applied to plants at concentrations of 238, 475, 950, and 1900 g ai/ha (50-400 uM).
row,Compound,Plant Activity
1,"COc1cnc(OC)n2nc(NS(=O)(=O)c3c(OCCOCCOCCOCCOCCOc4ccc5c(c4)C(=O)N(C4CCC(=O)NC4=O)C5=O)cccc3C(F)(F)F)nc12 (stereo not drawn) [Compound 4-A, N-(5,8-Dimethoxy-[1,2,4]triazolo[1,5-c]pyrimidin-2-yl)-2-((14-((2-(2,6-dioxopiperidin-3-yl)-1,3-dioxoisoindolin-5-yl)oxy)-3,6,9,12-tetraoxatetradecyl)oxy)-6-(trifluoromethyl)benzenesulfonamide]",+++
2,"O=C(COc1cccc2c1C(=O)N(C1CCC(=O)NC1=O)C2=O)NCCOCCOc1cccc(C(=O)C2C(=O)CCCC2=O)c1Cl (stereo not drawn) [Compound 1-A, N-(2-(2-(2-Chloro-3-(2,6-dioxocyclohexane-1-carbonyl)phenoxy)ethoxy)ethyl)-2-((2-(2,6-dioxopiperidin-3-yl)-1,3-dioxoisoindolin-4-yl)oxy)acetamide]",+
3,"CCO/N=C(\CC)C1=C(O)CC(c2ccc(OCCOCCOCCOc3ccc4c(c3)C(=O)N(C3CCC(=O)NC3=O)C4=O)cc2)CC1=O (stereo not drawn) [Compound 5, 2-(2,6-dioxo-3-piperidyl)-5-[2-[2-[2-[4-[4-[(E)-N-ethoxy-C-ethyl-carbonimidoyl]-3-hydroxy-5-oxo-cyclohex-3-en-1-yl]phenoxy]ethoxy]ethoxy]ethoxy]isoindoline-1,3-dione]",+
4,"COc1cnc(OC)n2nc(NS(=O)(=O)c3c(OCCOCCN4CCN(c5ccc6c(c5)C(=O)N(C5CCC(=O)NC5=O)C6=O)CC4)cccc3C(F)(F)F)nc12 (stereo not drawn) [Compound 4-P, N-(5,8-dimethoxy-[1,2,4]triazolo[1,5-c]pyrimidin-2-yl)-2-(2-(2-(4-(2-(2,6-dioxopiperidin-3-yl)-1,3-dioxoisoindolin-5-yl)piperazin-1-yl)ethoxy)ethoxy)-6-(trifluoromethyl)benzenesulfonamide]",+
5,"COc1cnc(OC)n2nc(NS(=O)(=O)c3c(OCCOCCOCCOc4ccc5c(c4)C(=O)N(C4CCC(=O)NC4=O)C5=O)cccc3C(F)(F)F)nc12 (stereo not drawn) [Compound 4-C, N-(5,8-Dimethoxy-[1,2,4]triazolo[1,5-c]pyrimidin-2-yl)-2-(2-(2-(2-((2-(2,6-dioxopiperidin-3-yl)-1,3-dioxoisoindolin-5-yl)oxy)ethoxy)ethoxy)ethoxy)-6-(trifluoromethyl)benzenesulfonamide]",+++
6,"O=C(COc1ccc(Oc2cncc(C(F)(F)F)c2)cc1)NCCCOCCOCCOCCOCCOCCOc1ccc2c(c1)C(=O)N(C1CCC(=O)NC1=O)C2=O (stereo not drawn) [Compound 7-C, N-(1-((2-(2,6-dioxopiperidin-3-yl)-1,3-dioxoisoindolin-5-yl)oxy)-3,6,9,12,15-pentaoxaoctadecan-18-yl)-2-(4-((5-(trifluoromethyl)pyridin-3-yl)oxy)phenoxy)acetamide]",−
7,"COc1cnc(OC)n2nc(NS(=O)(=O)c3c(OCCOCCOCCOCCOCCNc4cccc5c4C(=O)N(C4CCC(=O)NC4=O)C5=O)cccc3C(F)(F)F)nc12 (stereo not drawn) [Compound 4-F, N-(5,8-Dimethoxy-[1,2,4]triazolo[1,5-c]pyrimidin-2-yl)-2-((14-((2-(2,6-dioxopiperidin-3-yl)-1,3-dioxoisoindolin-4-yl)amino)-3,6,9,12-tetraoxatetradecyl)oxy)-6-(trifluoromethyl)benzenesulfonamide]",+++
8,"O=C(COc1ccc(Oc2nc3ccc(F)cc3s2)cc1)NCCCOCCOCCOc1ccc2c(c1)C(=O)N(C1CCC(=O)NC1=O)C2=O (stereo not drawn) [Compound 8-A, N-(3-(2-(2-((2-(2,6-Dioxopiperidin-3-yl)-1,3-dioxoisoindolin-5-yl)oxy)ethoxy)ethoxy)propyl)-2-(4-((6-fluorobenzo[d]thiazol-2-yl)oxy)phenoxy)acetamide]",+
9,"CCC(=O)C1=C(O)CC(c2ccc(OCCOCCOCCN3CCN(c4ccc5c(c4)C(=O)N(C4CCC(=O)NC4=O)C5=O)CC3)cc2)CC1=O (stereo not drawn) [Compound 5-A, 2-(2,6-Dioxopiperidin-3-yl)-5-(4-(2-(2-(2-((5′-hydroxy-3′-oxo-4′-propionyl-1′,2′,3′,6′-tetrahydro-[1,1′-biphenyl]-4-yl)oxy)ethoxy)ethoxy)ethyl)piperazin-1-yl)isoindoline-1,3-dione]",−
